The test system of this data set is B16/F1 murine melanoma. It counts as in vivo, C57BL mice. Here is the method: To the nape of the neck of 12 female C57BL mice, each weighing 18˜23 g, B16/F1 murine melanoma cells were injected at a density of 10^6 cells/mL. Two weeks later, the tumor was developed to a size of 0.5˜1 g. The ^177Lu-DOTA-Gly-Cyclic(Dap-Gln-His-dPhe-Arg-Trp-Asp)-Lys-Pro-Val-CONH2 prepared in Example 13 was injected to the mice at a dose of 5 μCi (1.6 μg in 100 μl of saline). 2, 4 and 24 hours later, the mice were sacrificed before organ excision.
For comparison for target selectivity, the mice that were injected with 2 μg of an unlabeled peptide 2 hours after the first injection and then with the radiolabeled peptide were used as a control.
The excised organs were analyzed for radioactivity using a gamma counter (1470 WIZARD Automatic Gamma Counter, PerkinElmer) and the results are plotted in FIG. 7.

On to “^177Lu-labeled DOTA-Gly-cyclic(Dap-Glu-His-dPhe-Arg-Trp-Asp)-Lys-Pro-Val-CONH2 [Example 13]”, for which, for the setting “concluded from tumor uptake with and without unlabeled peptide”, the receptor selectivity entry is “high receptor selectivity”. Moreover, the “tumor uptake in control injected with 2 μg of unlabeled peptide, compared with experimental groups” value (mouse, in vivo) is “lower tumor uptake”.

Values taken from patent publication US8124054B2, “Chelating agent conjugated α-MSH peptide derivatives, preparation method thereof and composition for diagnosis and treatment of melanoma comprising the same as an active ingredient” (Korea Atomic Energy Research Institute, priority 2008, dated 2012).
